From patent publication US20220409643A1, “ROR Gamma T Inhibitors and Topical Uses Thereof” (Dermira, inc., priority 2019, published 2022) come the findings set out here.

In series [1] the test system is IL17A. Description: skin Resident Immune Cell Assay (sRICA), Th17 model, IL17A protein in media. Type of series: cell-based. As to conditions: 100 uM solution in 1% DMSO/OD applied topically to human skin, media collected 24 hours after Th17 activation. The method, boiled down:
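Human surgical skin, dermatomed to 750μm, 8 mm biopsies cultured air-liquid in transwells; RORγt inhibitors applied topically at 100 uM in 1% DMSO/OD, up to 24 h before Th17 activation by cytokine/antibody cocktail. IL17A measured in media 24 h post-activation by SiMoA, expressed as % of activated untreated skin.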

In series [2] the test system is Th17 associated genes. Nature of the series: expression of Th17 associated genes in skin by real-time quantitative reverse transcription PCR. The format is cell-based. To be noted: skin harvested 24 hours after induction of inflammation. The method, then: Studies were carried out to determine the effect of two RORγt inhibitors of the present disclosure (i.e., Compound 1 and Compound 2, prepared in formulation as described in Example 1) on Th17 associated genes. Skin was harvested from subjects 24 hours after induction of inflammation. The RNA from the samples were isolated, and expression of the genes were quantified through real-time quantitative reverse transcription PCR. Clobetasol was used as a positive control.

In series [3] the test system is imiquimod (IMQ)-induced psoriasis in mice. Description: IMQ-induced psoriasis in mice, topical treatment. The format is in vivo. To be noted: 0.05% topical clobetasol cream, 10% body surface area. An excerpt: Topical application of imiquimod (IMQ), a TLR7/8 ligand and potent immune activator, is applied to the shaved backs and ears of mice to induce psoriasis. Information on the murine model of IMQ-induced psoriasis can be found at van der Fits L, Mourits S, Voerman JS, Kant M, Boon L, Laman JD, et al. Imiquimod-induced psoriasis-like skin inflammation in mice is mediated via the IL-23/IL-17 axis. J Immunol. 2009; 182:5836-45, which is hereby incorporated by reference in its entirety. Following administration of IMQ, mice ears and skin are observed for erythema, occurrence of scales and thickness after a period of six days. One group of mice were administered 0.05% topical clobetasol cream (10% body surface area), a potent topical steroid, as a positive control, and one group of mice received topical vehicle lacking Compoun 1 (10% body surface area), and one group was administered Compound 1 (3% formulation)(10% body surface area).
The mice were evaluated for erythema, presence of scales, thickness of ear tissue and body weight following administration of the treatments described above. Erythema and scales are determined by comparing the mice to a reference for color and severity of scaling.

Take `CC[Si](C)(C)c1c(F)cc(NC(=O)[C@H]2c3ccc(COC)nc3CCN2C(=O)c2cc(O)no2)cc1F` [(5R)-N-(4-(ethyl(dimethyl)silyl)-3,5-difluorophenyl)-6-((3-hydroxy-1,2-oxazol-5-yl)carbonyl)-2-(methoxymethyl)-5,6,7,8-tetrahydro-1,6-naphthyridine-5-carboxamide]: in series [1] (Homo sapiens, 24 h), the inhibition (in general, the drop in the measured response relative to a control, in per cent) at 100 µM worked out at 48.5%.
As to `COc1ccc2c(n1)CCN(C(=O)Cc1cc(O)no1)[C@H]2C(=O)Nc1ccc(C(C)(C)C)c(F)c1` [(5R)-N-(4-tert-butyl-3-fluorophenyl)-6-((3-hydroxy-1,2-oxazol-5-yl)acetyl)-2-methoxy-5,6,7,8-tetrahydro-1,6-naphthyridine-5-carboxamide], in series [1], the inhibition at 100 µM worked out at 69.5%.
Same read-out and setting: in the case of `COc1ccc2c(n1)CCN(C(=O)Cc1cc(O)no1)[C@H]2C(=O)Nc1cc(F)c2c(c1)CCC2(C)C` [(5R)-N-(7-fluoro-1,1-dimethyl-2,3-dihydro-1H-inden-5-yl)-6-((3-hydroxy-1,2-oxazol-5-yl)acetyl)-2-methoxy-5,6,7,8-tetrahydro-1,6-naphthyridine-5-carboxamide] it was 19.2%; in that of `COc1ccc2c(n1)CCN(C(=O)c1cc(O)no1)[C@H]2C(=O)Nc1cc(F)c2c(c1)CCC2(C)C` [(5R)-N-(7-fluoro-1,1-dimethyl-2,3-dihydro-1H-inden-5-yl)-6-((3-hydroxy-1,2-oxazol-5-yl)carbonyl)-2-methoxy-5,6,7,8-tetrahydro-1,6-naphthyridine-5-carboxamide], 46.9%.
With `C[C@H]1C[C@H]2[C@@H]3CCC4=CC(=O)C=C[C@]4(C)[C@@]3(F)[C@@H](O)C[C@]2(C)[C@@]1(O)C(=O)CCl` [Clobetasol], in series [2], the CCL-20 gene expression amounted to 10% reduction, the FoxP3 gene expression is 6-fold increase, the IL-17A gene expression is 68% reduction and the IL-19 gene expression is on record as 53% reduction. In addition, in series [2], the IL-36γ gene expression was found to be 60% reduction, the S100A7 gene expression is listed as 62% reduction, the SerapinB gene expression stood at 65% reduction and the TNFα gene expression was 25% reduction. Also, the “Body weight change / systemic toxicity” value in series [3] is “significant weight loss”.
Take `CN(C(=O)c1cc(O)no1)C(C(=O)Nc1cc(F)c([Si](C)(C)C)c(F)c1)C1CCOCC1` (stereo not shown) [N-(2-((3,5-difluoro-4-(trimethylsilyl)phenyl)amino)-2-oxo-1-(tetrahydro-2H-pyran-4-yl)ethyl)-3-hydroxy-N-methyl-1,2-oxazole-5-carboxamide]: the inhibition at 100 µM in series [1] (Homo sapiens, 24 h) was 31.7%.
Same read-out and setting: the same measure for `COCc1ccc(C(NC(=O)C2CNC(=O)C2)C(=O)Nc2ccc([Si](C)(C)C)c(F)c2)cc1` (stereo not shown) [N-(2-((3-fluoro-4-(trimethylsilyl)phenyl)amino)-1-(4-(methoxymethyl)phenyl)-2-oxoethyl)-5-oxopyrrolidine-3-carboxamide]: 85.2%.
As for `COc1ccc(C(NC(=O)C2CNC(=O)C2)C(=O)Nc2ccc([Si](C)(C)C)c(F)c2)cc1` (stereo not shown) [N-(2-((3-fluoro-4-(trimethylsilyl)phenyl)amino)-1-(4-methoxyphenyl)-2-oxoethyl)-5-oxopyrrolidine-3-carboxamide], the inhibition at 100 µM in series [1] (Homo sapiens, 24 h) stood at 65.8%.
`CCn1c(=O)n(CCCOC)c(=O)c2cc(NC(=O)CC(C)CC(=O)Nc3ccc(C#N)c(Cl)c3)ccc21` (stereo not shown) [N-(3-chloro-4-cyanophenyl)-N′-(1-ethyl-3-(3-methoxypropyl)-2,4-dioxo-1,2,3,4-tetrahydroquinazolin-6-yl)-3-methylpentanediamide]: the inhibition at 100 µM in series [1] (Homo sapiens, 24 h) is 60.8%.
On the same count and under the same terms, the same measure for `COc1ccc([C@H](C(=O)Nc2cc(F)c([Si](C)(C)C)cc2F)N(C)C(=O)c2cc(O)no2)cc1` [N-((1R)-2-((2,5-difluoro-4-(trimethylsilyl)phenyl)amino)-1-(4-methoxyphenyl)-2-oxoethyl)-3-hydroxy-N-methyl-1,2-oxazole-5-carboxamide]: 18.2%.
The same measure, in the same setting: in the case of `COCc1ccc([C@@H](NC(=O)CCS(C)(=O)=O)C(=O)Nc2ccc([Si](C)(C)C)c(F)c2)cc1` [N-((1R)-2-((3-fluoro-4-(trimethylsilyl)phenyl)amino)-1-(4-(methoxymethyl)phenyl)-2-oxoethyl)-3-(methylsulfonyl)propanamide] it was 67.4%; in that of `COCc1ccc([C@@H](NC(=O)N2CC(O)C2)C(=O)Nc2ccc([Si](C)(C)C)c(F)c2)cc1` [N-((1R)-2-((3-fluoro-4-(trimethylsilyl)phenyl)amino)-1-(4-(methoxymethyl)phenyl)-2-oxoethyl)-3-hydroxyazetidine-1-carboxamide], 54.6%.
Still for that read-out and setting: in the case of `COCc1ccc([C@@H](NC(=O)C2CCOCC2)C(=O)Nc2ccc([Si](C)(C)C)c(F)c2)cc1` [N-((1R)-2-((3-fluoro-4-(trimethylsilyl)phenyl)amino)-1-(4-(methoxymethyl)phenyl)-2-oxoethyl)tetrahydro-2H-pyran-4-carboxamide] it was -20.1%.
Consider `CC(C)(C)c1ccc(NC(=O)[C@H](NC(=O)C(O)C(F)(F)F)C2CCOCC2)cc1Cl` (stereo partly drawn) [N-((1R)-2-((4-tert-butyl-3-chlorophenyl)amino)-2-oxo-1-(tetrahydro-2H-pyran-4-yl)ethyl)-3,3,3-trifluoro-2-hydroxypropanamide], for which, in series [1], the inhibition at 100 µM worked out at 71.3%.
With `CCn1c2ccccc2c2cc(C(=O)NCC(C)CC(=O)Nc3ccc(C#N)c(Cl)c3)ccc21` (stereo not shown) [N-{4-[(3-chloro-4-cyanophenyl)amino]-2-methyl-4-oxobutyl}-9-ethyl-9H-carbazole-3-carboxamide], the inhibition at 100 µM in series [1] (Homo sapiens, 24 h) is 24.5%.
The same measure, in the same setting: the same measure for `Cn1ncc2cc([C@@H](NC(=O)[C@@H]3CNC(=O)C3)C(=O)Nc3ccc([Si](C)(C)C)c(F)c3)ccc21` [drawing 79, (3S)-N-((1R)-2-((3-fluoro-4-(trimethylsilyl)phenyl)amino)-1-(1-methyl-1H-indazol-5-yl)-2-oxoethyl)-5-oxopyrrolidine-3-carboxamide]: 45.7%.
Take `Cn1ncc2cc([C@@H](NC(=O)[C@@H]3CNC(=O)C3)C(=O)Nc3ccc([Si](C)(C)C)c(F)c3)ccc21` [drawing 89, (3S)-N-(2-((3-fluoro-4-(trimethylsilyl)phenyl)amino)-1-(1-methyl-1H-indazol-5-yl)-2-oxoethyl)-5-oxopyrrolidine-3-carboxamide]: the “Activity in sRICA (% inhibition of IL17A)” value in series [1] is 36.72%.
